For test [1], the system named is NP110SM cells. As to the kind of experiment: Differentiation of clonal embryonic progenitor line NP110SM in HyStem beads, Illumina microarray gene expression. Type of test: cell-based, human. Conditions: NP110SM; 10 M CL316243 together with 50 ng/ml BMP4 and 5.0 μM rosiglitazone; FIG. 15 lane 9. How it is done:
(§1) Differentiation medium is high glucose DMEM (CellGro Cat. No. 15-013-CV) with Pyruvate, 1 mM (Gibco Cat. 11360), Pen:Strep 100U/ml:100 ug/ml (Gibco Cat. No. 504284), Glutamax 2 mM (Gibco Cat. No. 35050), Dexamethasone 0.1 uM (Sigma, St. Louis, Mo., Cat. No. D1756-100), L-Proline 0.35 mM (Sigma Cat. No. D49752), 2-phospho-L-Ascorbic Acid 0.17 mM (Sigma, Cat. No. 49792, Fluka), and ITS Premix (BD, Franklin Lakes, N.J., sterile Cat. No. 47743-628) with a final concentration 6.25 ug/ml insulin, 6.25 ug/ml transferrin, 6.25 ng/ml selenious acid, serum albumin 1.25 mg/ml, 5.35 ug/ml linoleic acid. In various differentiation conditions, the Differentiation medium is supplemented with various growth factors or other differentiation factors as described herein.
HyStem-C (BioTime, Inc. Alameda, Calif.) is a matrix composed of thiol-modified gelatin and thiolated hyaluronan crosslinked in vivo or in vitro with (polyethylene glycol diacrylate (PEGDA). We observed that clonal human embryonic progenitor cell lines such as those described in the present invention, could be efficiently differentiated in high-density cultures of said crosslinked collagen and hyaluronate in the following manner. HyStem-C® (BioTime, CA, USA) is reconstituted following the manufacturer's instructions. Briefly, the HyStem component (10 mg of thiol-modified hyaluronan) is dissolved in 1.0 ml of degassed deionized water for approximately 20 min to prepare a 1% w/v solution. The Gelin-S® component (10 mg of thiol-modified gelatin (BioTime)) is dissolved in 1.0 ml of degassed deionized water to prepare a 1% w/v solution, and polyethylene glycol diacrylate (10 mg of PEGDA) is dissolved in 0.5 ml of degassed deionized water to prepare a 2% w/v solution. Then, HyStem (1 ml, 1% w/v) is mixed with Gelin-S (1 ml, 1% w/v) immediately before use. Pelleted cells are resuspended in the recently prepared HyStem:Gelin-S (1:1 v/v) mix described above. Upon the addition of the PEGDA cross-linker, the cell suspension, at a final concentration of 2.0×10^7 cells/ml is aliquoted (25 μl/aliquot) into six-well plates (Corning® 3516; VWR, PA, USA) after partial gelation. Following complete gelation (20 min), Differentiation Medium is added to each well. Plates were then placed in a humidified incubator at 37° C. with ambient O2 and 10% CO2, and the cells were fed three-times weekly. At the desired time point, hydrogel constructs were either fixed and processed for immunohistochemical analysis or lysed using RLT (Qiagen, CA, USA) with 1% beta-mercaptoethanol for total RNA to analyze transcript expression using quantitative real-time PCR (qRT-PCR) and/or whole-genome microarray.
(§2) Total RNA was extracted directly from cells growing in 6-well plates or 10 cm tissue culture dishes using Qiagen RNeasy mini kits according to the manufacturer's instructions. RNA concentrations were measured using a Beckman DU530 or Nanodrop spectrophotometer and RNA quality was determined by denaturing agarose gel electrophoresis or using an Agilent 2100 bioanalyzer. Whole-genome expression analysis was carried out using Illumina Human Ref-8v3 or Human HT-12 v4 BeadArrays, and RNA levels for certain genes were confirmed by qRT-PCR. For the Illumina BeadArrays, total RNA was linearly amplified and biotin-labeled using Illumina TotalPrep kits (Life Technologies, Temecula, Calif., USA), and cRNA was quality-controlled using an Agilent 2100 Bioanalyzer. The cRNA was hybridized to Illumina BeadChips, processed, and read using a BeadStation array reader according to the manufacturer's instructions (Illumina, San Diego, Calif., USA). Values of less than 120 relative fluorescence units (RFUs) were considered as nonspecific background signal.
The line NP110SM was then exposed to differentiation in the BAT cell differentiation protocols described herein. […]

For test [2], the system named is cell line E3. As to the kind of experiment: Differentiation of clonal hEP cell line E3 in HyStem beads, Illumina microarray gene expression. Type of test: cell-based, human. How it is done:
as §1
(§3) The Gelin-S® component (10 mg of thiol-modified gelatin (BioTime)) is dissolved in 1.0 ml of degassed deionized water to prepare a 1% w/v solution, and polyethylene glycol diacrylate (10 mg of PEGDA) is dissolved in 0.5 ml of degassed deionized water to prepare a 2% w/v solution. Then, HyStem (1 ml, 1% w/v) is mixed with Gelin-S (1 ml, 1% w/v) immediately before use. Pelleted cells are resuspended in the recently prepared HyStem:Gelin-S (1:1 v/v) mix described above. Upon the addition of the PEGDA cross-linker, the cell suspension, at a final concentration of 2.0×10^7 cells/ml is aliquoted (25 μl/aliquot) into six-well plates (Corning® 3516; VWR, PA, USA) after partial gelation. Following complete gelation (20 min), Differentiation Medium is added to each well. Plates were then placed in a humidified incubator at 37° C. with ambient O2 and 10% CO2, and the cells were fed three-times weekly. At the desired time point, hydrogel constructs were either fixed and processed for immunohistochemical analysis or lysed using RLT (Qiagen, CA, USA) with 1% beta-mercaptoethanol for total RNA to analyze transcript expression using quantitative real-time PCR (qRT-PCR) and/or whole-genome microarray.
as §2

The subject of test [3] is cell line E72. As to the kind of experiment: Differentiation of cell line E72 in HyStem, gene expression. Format: cell-based, human. The settings on record: E72 passage 11; HyStem-C supplemented with 1.0 uM all-trans retinoic acid. How it is done: HyStem-C (BioTime, Inc. Alameda, Calif.) (BioTime, Alameda, Calif., USA) was reconstituted following the manufacturer's instructions. Briefly, the HyStem component (thiol modified hyaluronan, 10 mg) was dissolved in 1.0 ml degassed deionized water for about 20 minutes to prepare a 1% w/v solution. The Gelin-S component (thiol modified gelatin, 10 mg) was dissolved in 1 ml degassed deionized water to prepare a 1% w/v solution, and PEGDA (PEG diacrylate, 10 mg) was dissolved in 0.5 ml degassed deionized water to prepare a 2% w/v solution. HyStem (1 ml, 1% w/v) was mixed with Gelin-S (1 ml, 1% w/v) immediately before use. Pelleted cells were resuspended in recently prepared HyStem:Gelin-S (1:1 v/v) mix described above. Upon the addition of crosslinker PEGDA, the cell suspension, at a final concentration of 2.0×10^7 cells/ml, was aliquoted at 25 μl aliquot four to five times into each well of 6 well plates (Corning 3516) after partial gelation to form attached beads. Following complete gelation (20 minutes), chondrogenic medium was added to each well (i.e about 4 ml/each well of a 6 well plate). […]
The Gelin-S® component (10 mg of thiol-modified gelatin (BioTime)) is dissolved in 1.0 ml of degassed deionized water to prepare a 1% w/v solution, and polyethylene glycol diacrylate (10 mg of PEGDA) is dissolved in 0.5 ml of degassed deionized water to prepare a 2% w/v solution. […] At the desired time point, hydrogel constructs were either fixed and processed for immunohistochemical analysis or lysed using RLT (Qiagen, CA, USA) with 1% beta-mercaptoethanol for total RNA to analyze transcript expression using quantitative real-time PCR (qRT-PCR) and/or whole-genome microarray.
Total RNA was extracted directly from cells growing in 6-well plates or 10 cm tissue culture dishes using Qiagen RNeasy mini kits according to the manufacturer's instructions. RNA concentrations were measured using a Beckman DU530 or Nanodrop spectrophotometer and RNA quality was determined by denaturing agarose gel electrophoresis or using an Agilent 2100 bioanalyzer. […] The cRNA was hybridized to Illumina BeadChips, processed, and read using a BeadStation array reader according to the manufacturer's instructions (Illumina, San Diego, Calif., USA).

Test [4] concerns Bone marrow-derived mesenchymal stem cells (MSCs). As to the kind of experiment: Differentiation of bone marrow-derived MSCs in HyStem-C beads, FABP4 expression. The settings on record: 14 days, 50 ng/mL BMP2, or 10 ng/mL BMP4, or 100 ng/mL BMP7. Format: cell-based. How it is done:
as §3

With `C[C@H](Cc1ccc2c(c1)OC(C(=O)[O-])(C(=O)[O-])O2)NC[C@H](O)c1cccc(Cl)c1.[Na+].[Na+]` [CL316243, reference compound], the UCP1 expression entry in test [1] was “appeared to further increase”.

Take `O=C(Nc1ccncc1)c1cc([N+](=O)[O-])ccc1Cl` [T0070907, reference compound]: in test [2] (HyStem with 10 ng/ml BMP4 plus T0070907, compared to HyStem BMP4 alone, cell line not restated), the C19ORF80 expression result is “decreased C19ORF80 expression”. Also, in test [2] (presence of the PPARγ antagonist T0070907, FIG. 7, cell line not restated), the THRSP expression entry was “decreased to nearly undetectable levels”.

Turning to `CC1=C(/C=C/C(C)=C/C=C/C(C)=C/C(=O)O)C(C)(C)CCC1` [all-trans retinoic acid, reference compound], the “expression of HOXB6, a marker of lateral plate mesenchyme” value in test [3] was “induced the expression of HOXB6”.

On to `CN(CCOc1ccc(CC2SC(=O)NC2=O)cc1)c1ccccn1` (stereo not drawn) [rosiglitazone, reference compound], for which, in test [2] (E3, HyStem beads with 1.0 μM rosiglitazone, FIG. 3), the ADIPOQ transcript expression was > 5,000 RFUs. For the same molecule, the UCP1 transcript expression in test [2] (E3, HyStem beads, 1.0 μM rosiglitazone in combination with 100 ng/ml BMP7, values greater than 160 RFUs above background) is reported as 161 RFUs.

B1: BMP7: Bone Morphogenetic Protein 7, TGF-beta superfamily member (protein, UniProt P18075 293-431, looked up)
Bone morphogenetic protein 7: STGSKQRSQNRSKTPKNQEALRMANVAENSSSDQRQACKKHELYVSFRDLGWQDWIIAPEGYAAYYCEGECAFPLNSYMNATNHAIVQTLVHFINPETVPKPCCAPTQLNAISVLYFDDSSNVILKKYRNMVVRACGCH
For B1, the “differentiation into adipocytes as evidenced by expression of FABP4” value in test [4] is reported as “caused the differentiation of the cells into adipocytes”. For the same molecule, the PCK1 transcript expression result in test [2] (E3, HyStem beads with 10 ng/ml BMP4 or 100 ng/ml BMP7, FIG. 5) is given as “relatively high levels”. Moreover, in test [2] (E3, HyStem supplemented with 100 ng/ml BMP7), the “expression of C19ORF80” value was “highest expression”.
